# Results taken from patent publication EP1289507B1, “USE OF AN ALDOSTERONE ANTAGONIST FOR THE TREATMENT OR PROPHYLAXIS OF ALDOSTERONE-MEDIATED PATHOGENIC EFFECTS” (priority 2000, dated 2001).
# Where two headings read alike, the source gives them in different places.
# Assays:
# [1] = system: aortas of New Zealand white rabbits on normal or 1 % cholesterol chow; assay: Endothelial function (isometric tension, superoxide generation) of aortas in diet induced atherosclerosis; assay type: in vivo; conditions: for % NTG (peak relaxation to nitroglycerin) / %Ach (peak relaxation to acetylcholine): eplerenone 50 mg/kg twice daily; for %Ach (peak relaxation to acetylcholine): 6 weeks; for O2 counts: lucigenin chemiluminescence
# Experimental: Methods: New Zealand white rabbits were randomized to four treatment groups. 32 Rabbits were placed on normal (NC) or 1 % cholesterol chow (HC) for a duration of 8 weeks. […] Rabbits were euthanized at the end of 8 weeks and the aortas extracted for isometric tension studies and estimation of superoxide (O2^-) generation in vessel segments by lucigenin chemiluminescence (250 µM). Vessels were preconstricted with phenylephrine (3 x 10^-7) to approximately 50% of peak constriction and dose responses to acetylcholine (Ach) and nitroglycerin (NTG) tested.
# [2] = Pharmacokinetics and tolerability in subjects with moderate hepatic impairment vs normal healthy subjects; assay type: in vivo, human subjects; conditions: for AUC(0-t): read-out: AUC (0-lqc), Least Squares Mean; for AUC(0-inf): read-out: AUC (0-∞), Least Squares Mean
# [3] = Form H content of dried solids by X-ray powder diffraction (XPRD); assay type: physicochemical; conditions: for Estimated Weight Percent of Form H / Form H Peak Area 12° Two Theta Peak: dried solids from methyl ethyl ketone crystallization
# Experimental: The weight percent of the diepoxide or 11,12-epoxide in each sample is given in Tables C-6A and C-6B, respectively. A micro-flea magnetic stirrer was added to each scintillation vial along with 1 mL of methyl ethyl ketone. The vials were loosely capped and the solid dissolved by heating to reflux on a hot plate with magnetic stirring. Once the solids were dissolved, the solutions were allowed to cool to room temperature on the hot plate. Magnetic stirring was maintained during the cooling period. After the solutions reached room temperature, the solids were collected by vacuum filtration and immediately analyzed by X-ray powder diffraction (XPRD). The solids were then placed in a 100°C oven and dried for one hour at ambient pressure. The dried solids were analyzed by XPRD for Form H content by monitoring the area of the Form H diffraction peak at about 12.1 degrees two theta. All XPRD diffraction patterns were recorded using an Inel Multipurpose Diffractometer. Table C-6A
# The peak intensities have been normalized for ease of comparison. No Form H was detected for the dried samples corresponding to the methyl ethyl ketone crystallizations performed at doping levels of 0 and 1%. Form H was detected in the dried samples corresponding to the methyl ethyl ketone crystallizations performed at doping levels of 3 and 5%. The area for the Form H diffraction peak at about 12.1 degrees two theta and the estimated Form H content for each sample are given in Table C-6C below. Table C-6C
# The peak intensities have been normalized for ease of comparison. No Form H was detected for the dried samples corresponding to the methyl ethyl ketone crystallizations performed at doping levels of 0, 1% and 5%. Form H was detected in the dried samples corresponding to the methyl ethyl ketone crystallization performed at a doping level of 10%. The area for the Form H diffraction peak at 12.1 degrees two theta and estimated Form H content for each sample are given in Table C-6D. Table C-6D
# Table C-7B reports the weight fraction of Form H measured in materials dried using either a fluid bed (LAB-LINE/P.R.L. Hi-Speed Fluid Bed Dryer, Lab-Line Instruments, Inc.) or a vacuum oven (Baxter Scientific Products Vacuum Drying Oven, Model DP-32). […] Table C-7B
# [4] = 96 hours postdose; other tissues below the limit of detection; 20 mg/kg
# [5] = human, in vivo, 400 mg, Single Dose, Moderate Impairment
# [6] = human, in vivo, 400 mg, Single Dose, Normal
# [7] = 0% 11,12-epoxide in starting eplerenone mixture
# [8] = 0% diepoxide in starting eplerenone mixture
# [9] = 1% 11,12-epoxide in starting eplerenone mixture
# [10] = 1% diepoxide in starting eplerenone mixture
# [11] = 3% diepoxide in starting eplerenone mixture
# [12] = 5% 11,12-epoxide in starting eplerenone mixture
# [13] = 5% diepoxide in starting eplerenone mixture
# [14] = 10% 11,12-epoxide in starting eplerenone mixture
smiles,measurement,setting,value
"COC(=O)[C@@H]1CC2=CC(=O)CC[C@]2(C)[C@@]23O[C@@H]2C[C@@]2(C)[C@@H](CC[C@@]24CCC(=O)O4)[C@H]13 [Eplerenone, Pregn-4-ene-7,21-dicarboxylic acid, 9,11-epoxy-17-hydroxy-3-oxo-, γ-lactone, methyl ester, (7α, 11α, 17β)-]",% NTG (peak relaxation to nitroglycerin),[1]; 1 % cholesterol chow (HC),112±4%
same,%Ach (peak relaxation to acetylcholine),[1]; 1 % cholesterol chow (HC),82±6 %
same,O2 counts,[1]; 1 % cholesterol chow (HC),1400±504 per mg of dry weight
same,% NTG (peak relaxation to nitroglycerin),[1]; normal chow (NC),107±2%
same,%Ach (peak relaxation to acetylcholine),[1]; normal chow (NC),97±3%
same,O2 counts,[1]; normal chow (NC),1110±373 per mg of dry weight
same,AUC greater among subjects with moderate hepatic impairment than matched normal subjects,"[2]; 400 mg, single dosing, b445 and b448 state it for single and multiple dose",41-50%
same,Ratio of Means AUC (0-24)/AUC0-co),[2]; Moderate Hepatic Impairment,0.95
same,"AUC (0-24), Ratio of Means Moderate/Normal",[2]; Multiple Dose,1.456
same,"CL/F, Ratio of Means Moderate/Normal",[2]; Multiple Dose,0.687
same,"Cmax, Ratio of Means Moderate/Normal",[2]; Multiple Dose,1.037
same,"XU(0-48), Ratio of Means Moderate/Normal",[2]; Multiple Dose,2.007
same,"XU(0-48), Least Squares Mean","[2]; Multiple Dose, Moderate Impairment",14.9 mg
same,"XU(0-48), Least Squares Mean","[2]; Multiple Dose, Normal",7.4 mg
same,Ratio of Means AUC (0-24)/AUC0-co),[2]; Normal,1.02
same,"AUC (0-lqc), Ratio of Means Moderate/Normal",[2]; Single Dose,1.413
same,"AUC (0-∞), Ratio of Means Moderate/Normal",[2]; Single Dose,1.497
same,"CL/.F, Ratio of Means Moderate/Normal",[2]; Single Dose,0.668
same,"Cmax, Ratio of Means Moderate/Normal",[2]; Single Dose,0.894
same,"XU(0-48), Ratio of Means Moderate/Normal",[2]; Single Dose,1.016
same,"XU(0-48), Least Squares Mean","[2]; Single Dose, Moderate Impairment",7.9 mg
same,"XU(0-48), Least Squares Mean","[2]; Single Dose, Normal",7.8 mg
same,AUC higher in moderate impairment compared to matched normal subjects,[2]; following multiple dosing 400 mg QD,46%
same,AUC tau at 24 h,"[2]; human, in vivo, 400 mg, Multiple Dose, Moderate Impairment, read-out: AUC (0-24), Least Squares Mean",43800 ng·h/mL
same,CL/F,"[2]; human, in vivo, 400 mg, Multiple Dose, Moderate Impairment, read-out: CL/F, Least Squares Mean (converted)",152 mL/min
same,CL/F,"[2]; human, in vivo, 400 mg, Multiple Dose, Moderate, read-out: CL/F, Mean (converted)",149 mL/min
same,AUC tau at 24 h,"[2]; human, in vivo, 400 mg, Multiple Dose, Normal, read-out: AUC (0-24), Least Squares Mean",30100 ng·h/mL
same,CL/F,"[2]; human, in vivo, 400 mg, Multiple Dose, Normal, read-out: CL/F, Least Squares Mean (converted)",222 mL/min
same,CL/F,"[2]; human, in vivo, 400 mg, Multiple Dose, Normal, read-out: CL/F, Mean (converted)",230 mL/min
same,Tmax,"[2]; human, in vivo, 400 mg, Multiple Dose, Normal, read-out: Tmax, Least Squares Mean",2.1 h
same,AUC(0-t),[2]; [5],42800 ng·h/mL
same,AUC(0-inf),[2]; [5],43600 ng·h/mL
same,CL/F,"[2]; human, in vivo, 400 mg, Single Dose, Moderate Impairment, read-out: CL/.F, Least Squares Mean (converted)",153 mL/min
same,CL/F,"[2]; human, in vivo, 400 mg, Single Dose, Moderate, read-out: CL/F, Mean (converted)",175 mL/min
same,AUC(0-t),[2]; [6],30300 ng·h/mL
same,AUC(0-inf),[2]; [6],29100 ng·h/mL
same,CL/F,"[2]; human, in vivo, 400 mg, Single Dose, Normal, read-out: CL/.F, Least Squares Mean (converted)",228 mL/min
same,CL/F,"[2]; human, in vivo, 400 mg, Single Dose, Normal, read-out: CL/F, Mean (converted)",254 mL/min
same,AUC tau at 24 h,"[2]; human, in vivo, 400 mg, linear kinetics assessment, Moderate Hepatic Impairment, read-out: Multiple Dose AUC (0-24), Least Squares Mean",47200 ng·h/mL
same,AUC tau at 24 h,"[2]; human, in vivo, 400 mg, linear kinetics assessment, Normal, read-out: Multiple Dose AUC (0-24), Least Squares Mean",29300 ng·h/mL
same,subjects with adverse events,[2]; subjects with moderate hepatic impairment,44%
same,subjects with adverse events,[2]; subjects with normal hepatic function,35%
same,Weight Percent Form H (XPRD),"[3]; cooling rate (0) 1.5°C/min, endpoint (0) 25°C, 100.8% eplerenone seeded with Form H, analyzed by DSC",100 Weight Percent
same,Weight Percent Form H (XPRD),"[3]; cooling rate (0) 1.5°C/min, endpoint (0) 25°C, 100.8% eplerenone seeded with Form H, analyzed by XPRD",77 Weight Percent
same,Weight Percent Form H (XPRD),"[3]; cooling rate (+) 3°C/min, cooling endpoint (+) 45°C, impurity level (+) 89.3% purity starting material",29 Weight Percent
same,Weight Percent Form H (XPRD),"[3]; cooling rate (-) 0.1°C/min, cooling endpoint (+) 45°C, impurity level (+) 89.3% purity starting material",31 Weight Percent
same,Weight Percent Form H,"[3]; cooling rate High, end point High, impurity level High, drying: High Fluid Bed",25%
same,Weight Percent Form H,"[3]; cooling rate High, end point High, impurity level High, drying: Low Fluid Bed",4.7%
same,Weight Percent Form H,"[3]; cooling rate High, end point High, impurity level High, drying: Vacuum Oven",29%
same,Weight Percent Form H,"[3]; cooling rate Low, end point Low, impurity level Low, drying: Low Fluid Bed",5.5%
same,Estimated Weight Percent of Form H,[3]; [7],None Detected
same,Form H Peak Area 12° Two Theta Peak,[3]; [7],None Detected
same,Estimated Weight Percent of Form H,[3]; [8],None Detected
same,Form H Peak Area 12° Two Theta Peak,[3]; [8],None Detected
same,Estimated Weight Percent of Form H,[3]; [9],None Detected
same,Form H Peak Area 12° Two Theta Peak,[3]; [9],None Detected
same,Estimated Weight Percent of Form H,[3]; [10],None Detected
same,Form H Peak Area 12° Two Theta Peak,[3]; [10],None Detected
same,Estimated Weight Percent of Form H,[3]; [11],10%
same,Form H Peak Area 12° Two Theta Peak,[3]; [11],1168
same,Estimated Weight Percent of Form H,[3]; [12],None Detected
same,Form H Peak Area 12° Two Theta Peak,[3]; [12],None Detected
same,Estimated Weight Percent of Form H,[3]; [13],30%
same,Form H Peak Area 12° Two Theta Peak,[3]; [13],4175
same,Estimated Weight Percent of Form H,[3]; [14],10-15%
same,Form H Peak Area 12° Two Theta Peak,[3]; [14],1541
same,"concentrations of radioactivity in cecum, kidneys, large intestine and liver",[4],less than 0.024 µg equivalents/g
